Patent US20250255847A1, “[…]s: Novel Drugs for Triple Negative Breast Cancer” (SIMMARON RSEARCH INC, priority 2024, published 2025)

Tests used:
[1] = target: T1, DNA binding activity of STAT3 (Homo sapiens, UniProt P40763); test: Electrophoretic mobility shift assay (EMSA) in nuclear extracts; type: cell-based; details: EGF (20 ng/mL)-stimulated MDA-MB-468 nuclear extract, SIM-1 20 nM (FIG. 9B)
T1 construct: endogenous in cells; host or cells: MDA-MB-468 (nuclear extract)
Description: FIG. 9 illustrates an embodiment of the present invention and illustrates promoter recruitment assay of STAT3 in IL6 promoter. (A) MDA-MB-468 cells were treated with 5, 10, and 20 ng/mL doses of EGF for 5 hrs followed by immunoblot (IB) analyses of Y705 phospho and S727 phospho STAT3 in nuclear extracts. Histone 3 ([…]) IB was run as control. (B) EMSA analyses were performed in nuclear extracts of EGF (20 ng/mL)- and EGF+SIM-1 (20 nM)-treated MDA-MB-468 cells against the STAT3-specific oligonucleotide probe (Li-Cor bioscience; Cat #P/N: 829-07922) or SEQ ID NO: 1 and resolved in 6% DNA retardation gel (Invitrogen). (C) Chromatin immunoprecipitation assay was performed in the nuclear extracts of MDA-MB-468 cells treated with EGF or EGF+SIM-1 for 5 hrs. Y705P STAT3 antibody was used for chromatin immunoprecipitation and IgG precipitation was performed as a control.
Electrophoretic Mobility Shift Assay (EMSA). EMSA was performed in […] as described before. […] were treated with 25 ng/mL EGF alone or together with SIM1 (5 nM) for 5 hrs followed by nuclear fractionation with nuclear extraction kit (Abcam). […]

[2] = target: T2, Y705P STAT3 and S727P STAT3 (Homo sapiens, UniProt P40763); test: IHC and immunoblot of phospho-STAT3 in PDX tumors; type: in vivo, mouse; details: tumor tissue; for expression of Y705PSTAT3 (IHC): p<0.0001 versus vehicle
T2 construct: tissue Jackson Laboratories TM00096; host or cells: patient-derived TNBC tumour in NOD.Cg-Prkdcscid Il2rgtm1Wjl/SzJ mice
Description: FIG. 15 illustrates an embodiment of the present invention and illustrates SIM 1 and 2 inhibited Y705P phosphorylation of STAT3 and the expressions of STAT3-dependent tumor supportive genes. (A) DAB immunostaining of Y705P STAT3 in tumor parenchyma of all three groups. (B) Quantitative analysis of Y705P STAT3-ir cells was performed by counting Y705P STAT3 cells in 15 different images, converting into a percent scale, and then plotting in a scatter histogram. On-way ANOVA followed by multiple comparison test indicated ****p<0.0001 versus control. (C) DAB immunostaining of S727P STAT3 followed by a (D) quantitative analysis of S727P STAT3-ir cells was performed in 15 different images and then plotted as a percent of total cells by a scatter histogram. On-way ANOVA represents no significance (NS) between groups. (E) Immunoblot analyses of Y705PSTAT3 (Rabbit […] antibody Cat #710093; Invitrogen), S727PSTAT3 (Mouse 1° antibody cat #MA5-15208; Invitrogen) followed by normalization with loading control β-actin (Mouse 1° antibody cat #MA1-744; Invitrogen). (F) A cDNA-based gene array of 66 STAT3-dependent tumor promoting genes were analyzed in TNBC tumors of vehicle-, SIM-1-, and SIM-2-treated mice. (G) A scatter plot summarized the gene array results. Based on the relative levels of expressions, gene levels were classified as low, moderate, and highly expressed. Results are confirmed after three different experiments.
Immunoblot assay. Immunoblot assay was performed as described before. Briefly, cell lysates were mixed with 5× Lamelli buffer, electrophoresed in 4-12% Tris-Glycine gel in tris-glycine SDS running buffer, transferred in a nitrocellulose membrane (P/N 926-31090; Li-Cor Biosciences, Lincoln, NE) in tris-glycine transfer buffer, incubated with appropriate primary antibodies overnight under shaking condition, labeled with IRDye700 and 800-tagged secondary antibodies for 2 hrs at room temperature in an orbital shaker, and then imaged in Odyssey Sa imager at 200 μm resolution.
Immunohistochemical (IHC) analyses. Tumor tissues were embedded in paraffin, cut at a thickness of 5 μm in Leica microtome, attached to a charged slide, dried in a dry bath at 37° C. for at least 48 hrs., and then progressed for IHC analysis. The IHC analysis was performed where, briefly, sections were deparaffinized by xylene and rehydrated by ethanol gradient (100%>70%>50%>20%; v/v) followed by complete rehydration by water. After that sections were blocked by Intercept® (TBS) Blocking Buffer (Licor Biosciences, Lincoln, NE) for 30 minutes, incubated with primary (1°) antibodies (Refer to Table 1) overnight at 4° C., washed with 1×TBST wash buffer for 3 times, incubated with biotinylated anti-mouse (1:200 dilution) or anti-rabbit (1:200 dilution) secondary (2°) antibodies (ThermoFisher), for 2 hrs., reacted with VECTASTAIN® Elite® ABC-HRP Kit, Peroxidase (Cat #PK-6100; Vector Laboratories) for 1 hr. as per manufacturer's recommendation, and finally stained with DAB chromogenic solution (Cat #SK-4100; Vector Laboratories).
This example provides a representative experiment that tested if SIM-1 and SIM-2 suppressed the activation of STAT3 in TNBC tumors. […] The result was further corroborated by the quantitative analysis (FIG. 15B), which indicated a significant downregulation of Y705PSTST3-ir cells (One-way ANOVA indicated ****p<0.0001 versus vehicle).
On the contrary, the expression of S727PSTAT3, another active isomer of STAT3, remained very low and unchanged across the treatment groups (FIG. 15C).
These genes include anti-apoptotic genes such as bcl-2, survivin, and bcl-xl; cell cycle progression markers such as cyclin D1, akt, and p21.

[3] = Solubility in aqueous solvent; type: physicochemical

T2 sequence (P40763 2-770 Y705P/S727P limits assumed): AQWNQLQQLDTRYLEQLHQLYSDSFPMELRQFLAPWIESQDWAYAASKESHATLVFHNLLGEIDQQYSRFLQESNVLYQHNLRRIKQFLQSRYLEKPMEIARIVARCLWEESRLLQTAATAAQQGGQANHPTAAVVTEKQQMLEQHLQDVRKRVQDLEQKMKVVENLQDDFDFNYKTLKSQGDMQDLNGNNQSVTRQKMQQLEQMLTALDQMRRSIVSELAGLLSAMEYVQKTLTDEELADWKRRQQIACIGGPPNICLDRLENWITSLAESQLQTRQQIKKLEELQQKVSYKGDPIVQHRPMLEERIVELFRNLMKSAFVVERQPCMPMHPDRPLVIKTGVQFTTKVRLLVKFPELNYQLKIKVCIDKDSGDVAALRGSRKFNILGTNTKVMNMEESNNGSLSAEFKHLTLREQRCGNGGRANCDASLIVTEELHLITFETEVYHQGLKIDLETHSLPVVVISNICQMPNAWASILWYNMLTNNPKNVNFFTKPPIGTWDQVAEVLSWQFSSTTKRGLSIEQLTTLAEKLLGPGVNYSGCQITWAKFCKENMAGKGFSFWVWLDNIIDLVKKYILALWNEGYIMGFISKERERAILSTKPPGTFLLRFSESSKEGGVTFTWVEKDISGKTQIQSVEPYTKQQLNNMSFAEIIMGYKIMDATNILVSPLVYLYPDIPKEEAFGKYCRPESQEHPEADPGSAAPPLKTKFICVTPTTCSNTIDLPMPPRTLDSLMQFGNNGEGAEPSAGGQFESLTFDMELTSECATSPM
T1 sequence (P40763 2-770 limits assumed): as the sequence (P40763 2-770 Y705P/S727P limits assumed) above, with P704Y, P726S counted along it

Compound | DNA binding activity of STAT3 [1] | S727P STAT3 expressions (IHC) [2] | Y705 phosphorylation of STAT3 (immunoblot) [2] | expression of Y705PSTAT3 (IHC) [2] | solubility in aqueous solvent [3]
O=C(O)CCC(=O)NCc1csc2ccc(Cl)cc12 [SIM-1, 4-[(5-chloro-1-benzothiophen-3-yl)methylamino]-4-oxobutanoic acid] | markedly inhibited | did not show any change | strongly and selectively suppressed | significantly suppressed | partly soluble to insoluble
CCOC(=O)c1c(NC(C)=O)sc2c(Cl)c(/C=N/O)ccc12 [SIM-2, ethyl 2-acetamido-7-chloro-6-(hydroxyiminomethyl)-1-benzothiophene-3-carboxylate] | – | did not show any change | strongly and selectively suppressed | completely ameliorated | partly soluble to insoluble
